Experimental data: ChEMBL document CHEMBL4825677, “Design, synthesis and biological evaluation of novel benzofuran derivatives as potent LSD1 inhibitors” (Eur J Med Chem, 2021); call rule not given here

How the values were obtained:
[1] = Metabolic stability in human liver microsomes assessed as half-life by LC-MS/MS analysis; format: ADME, Microsome
[2] = Metabolic stability in human liver microsome assessed as intrinsic clearance by LC-MS/MS analysis; format: ADME; details: liver microsomes, read-out: CLH
[3] = Metabolic stability in human liver assessed as intrinsic clearance by LC-MS/MS analysis; format: ADME, tissue-based; details: read-out: CLH
[4] = Microsomal stability in human liver microsomes assessed as parent compound remaining after 60 mins in presence of NADPH regenerating system by LC-MS/MS analysis; format: ADME, Microsome; details: read-out: Stabilty
[5] = Microsomal stability in human liver microsomes assessed as parent compound remaining after 60 mins in absence of NADPH regenerating system by LC-MS/MS analysis; format: ADME, Microsome; details: read-out: Stabilty
Cytochrome P450 2C9 = Cytochrome P450 2C9 (Homo sapiens, UniProt P11712); experiment: Inhibition of CYP2C9 in human liver microsomes at 10 uM by LC-MS/MS analysis; format: ADME
Cytochrome P450 2C19 = Cytochrome P450 2C19 (Homo sapiens, UniProt P33261); experiment: Inhibition of CYP2C19 in human liver microsomes at 10 uM by LC-MS/MS analysis; format: ADME
Cytochrome P450 2D6 = Cytochrome P450 2D6 (Homo sapiens, UniProt P10635); experiment: Inhibition of CYP2D6 in human liver microsomes at 10 uM by LC-MS/MS analysis; format: ADME
Cytochrome P450 3A4 = Cytochrome P450 3A4 (Homo sapiens, UniProt P08684); experiment: Inhibition of CYP3A4 in human liver microsomes at 10 uM by LC-MS/MS analysis; format: ADME
Cytochrome P450 1A2 = biological target: T1, Cytochrome P450 1A2 (Homo sapiens, UniProt P05177); experiment: Inhibition of CYP1A2 in human liver microsomes at 10 uM by LC-MS/MS analysis; format: ADME
T1 sequence (P05177 whole entry): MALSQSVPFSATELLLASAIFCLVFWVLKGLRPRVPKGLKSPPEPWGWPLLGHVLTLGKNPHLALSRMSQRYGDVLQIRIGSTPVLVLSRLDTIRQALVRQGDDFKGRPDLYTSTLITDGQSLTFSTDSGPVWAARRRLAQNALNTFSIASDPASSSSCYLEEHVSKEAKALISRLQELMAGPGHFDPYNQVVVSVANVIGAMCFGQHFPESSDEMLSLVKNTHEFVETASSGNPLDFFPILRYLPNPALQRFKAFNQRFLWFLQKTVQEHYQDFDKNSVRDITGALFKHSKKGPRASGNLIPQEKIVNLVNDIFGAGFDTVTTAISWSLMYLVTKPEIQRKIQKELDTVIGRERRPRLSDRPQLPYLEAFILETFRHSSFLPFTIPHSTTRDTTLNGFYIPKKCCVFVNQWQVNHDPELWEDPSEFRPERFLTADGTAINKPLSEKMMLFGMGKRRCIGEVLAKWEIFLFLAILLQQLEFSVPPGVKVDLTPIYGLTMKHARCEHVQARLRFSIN

NCI-H460 [6] = experiment: Induction of apoptosis in human NCI-H460 cells assessed as early apoptotic cells at 1 uM incubated for 48 hrs by AnnexinV-FITC/propidium iodide staining based flow cytometric analysis (reference value: 2.22%); format: functional
NCI-H460 [7] = experiment: Induction of apoptosis in human NCI-H460 cells assessed as late apoptotic cells at 1 uM incubated for 48 hrs by AnnexinV-FITC/propidium iodide staining based flow cytometric analysis (reference value: 1.36%); format: functional
NCI-H460 [8] = experiment: Induction of apoptosis in human NCI-H460 cells assessed as early apoptotic cells at 2 uM incubated for 48 hrs by AnnexinV-FITC/propidium iodide staining based flow cytometric analysis (reference value: 2.22%); format: functional
NCI-H460 [9] = experiment: Induction of apoptosis in human NCI-H460 cells assessed as late apoptotic cells at 2 uM incubated for 48 hrs by AnnexinV-FITC/propidium iodide staining based flow cytometric analysis (reference value: 1.36%); format: functional
NCI-H460 [10] = experiment: Induction of apoptosis in human NCI-H460 cells assessed as early apoptotic cells at 3 uM incubated for 48 hrs by AnnexinV-FITC/propidium iodide staining based flow cytometric analysis (reference value: 2.22%); format: functional
NCI-H460 [11] = experiment: Induction of apoptosis in human NCI-H460 cells assessed as late apoptotic cells at 3 uM incubated for 48 hrs by AnnexinV-FITC/propidium iodide staining based flow cytometric analysis (reference value: 1.36%); format: functional
NCI-H460 [12] = experiment: Inhibition of cell migration in human NCI-H460 cells assessed as reduction in cell migration measured after 48 hrs by wound healing assay; format: functional, cell-based; details: dose 0.3-1.2 µM
NCI-H460 [13] = experiment: Inhibition of cell migration in human NCI-H460 assessed as reduction in cell migration at 0.3 to 1.2 uM by wound healing assay; format: functional, cell-based; details: dose 0.3-1.2 µM, time 24-48 hrs, TDE = time-dependent effect
MCF7 = experiment: cells; details: Homo sapiens, MCF7, 72 h
Description: Antiproliferative activity against human MCF7 cells assessed as reduction in cell viability incubated for 72 hrs by CCK8 assay

MGC-803 [14] = experiment: cells; details: Homo sapiens, MGC-803, 72 h
Description: Antiproliferative activity against human MGC-803 cells assessed as reduction in cell viability incubated for 72 hrs by CCK8 assay

A549 = experiment: cells; details: Homo sapiens, A549, 72 h
Description: Antiproliferative activity against human A549 cells assessed as reduction in cell viability incubated for 72 hrs by CCK8 assay

THP-1 = experiment: cells; details: Homo sapiens, THP-1, 72 h
Description: Antiproliferative activity against human THP-1 cells assessed as reduction in cell viability incubated for 72 hrs by CCK8 assay

THLE-2 = experiment: cells; details: Homo sapiens, THLE-2, 72 h
Description: Cytotoxicity against human THLE-2 cells assessed as reduction in cell viability incubated for 72 hrs by CCK8 assay

[15] = biological target: T2, Amine oxidase [flavin-containing] A (Homo sapiens, UniProt P21397); experiment: Inhibition of N-terminal FLAG-tagged human recombinant MAO-A expressed in baculovirus-infected Sf9 cells by […]
T2 sequence (P21397 whole entry): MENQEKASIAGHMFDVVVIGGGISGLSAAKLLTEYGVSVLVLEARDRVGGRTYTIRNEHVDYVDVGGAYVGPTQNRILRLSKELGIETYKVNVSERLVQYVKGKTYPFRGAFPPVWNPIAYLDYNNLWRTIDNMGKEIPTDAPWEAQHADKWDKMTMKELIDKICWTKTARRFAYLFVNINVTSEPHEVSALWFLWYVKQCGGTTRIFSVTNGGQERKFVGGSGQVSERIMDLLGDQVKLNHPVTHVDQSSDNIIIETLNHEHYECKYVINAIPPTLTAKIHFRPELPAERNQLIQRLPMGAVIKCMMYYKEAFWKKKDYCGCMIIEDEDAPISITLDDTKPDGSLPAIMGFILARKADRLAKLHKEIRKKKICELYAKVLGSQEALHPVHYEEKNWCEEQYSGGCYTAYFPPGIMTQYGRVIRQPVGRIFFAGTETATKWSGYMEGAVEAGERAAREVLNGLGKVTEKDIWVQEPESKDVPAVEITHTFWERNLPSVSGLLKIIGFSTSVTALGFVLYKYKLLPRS

[16] = biological target: T3, Amine oxidase [flavin-containing] B (Homo sapiens, UniProt P27338); experiment: Inhibition of N-terminal FLAG-tagged human recombinant MAO-B expressed in baculovirus-infected Sf9 cells by […]
T3 sequence (P27338 whole entry): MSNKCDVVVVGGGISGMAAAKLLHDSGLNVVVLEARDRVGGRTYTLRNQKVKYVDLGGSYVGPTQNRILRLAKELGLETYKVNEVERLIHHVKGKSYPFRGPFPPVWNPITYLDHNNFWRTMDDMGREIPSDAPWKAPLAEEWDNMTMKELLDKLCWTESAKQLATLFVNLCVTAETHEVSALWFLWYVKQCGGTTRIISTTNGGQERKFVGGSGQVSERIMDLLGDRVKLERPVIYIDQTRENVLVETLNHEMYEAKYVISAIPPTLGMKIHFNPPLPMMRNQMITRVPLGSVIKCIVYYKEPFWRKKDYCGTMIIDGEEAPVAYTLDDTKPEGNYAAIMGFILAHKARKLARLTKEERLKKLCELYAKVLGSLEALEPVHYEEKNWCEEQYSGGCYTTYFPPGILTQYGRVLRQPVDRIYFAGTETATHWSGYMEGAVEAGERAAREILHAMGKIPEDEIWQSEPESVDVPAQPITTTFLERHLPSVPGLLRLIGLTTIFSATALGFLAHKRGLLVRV

NCI-H460 [17] = experiment: cells; details: Homo sapiens, NCI-H460, 72 h
Description: Antiproliferative activity against human NCI-H460 cells assessed as reduction in cell viability incubated for 72 hrs by CCK8 assay

MGC-803 [18] = experiment: Antiproliferative activity against human MGC-803 cells assessed as inhibition of cell growth by MTT assay; format: functional, cell-based
NCI-H460 [19] = experiment: Antitumor activity against human NCI-H460 cells xenografted in BALB/c mouse assessed as reduction in tumor weight at 20 mg/kg/day, ip for 15 days; format: functional; details: 360 h, time 15 day
NCI-H460 [20] = experiment: Antitumor activity against human NCI-H460 cells xenografted in BALB/c mouse assessed as reduction in tumor volume at 20 mg/kg/day, ip for 15 days; format: functional; details: 360 h, time 15 day
[21] = Toxicity in BALB/c mouse xenografted with human NCI-H460 cells assessed as body weight at 10 to 20 mg/kg/day, ip for 15 days and measured every 3 days; format: organism-based; details: in vivo, 360 h, dose 10-20 mg/kg/day, time 15 day
[22] = biological target: Lysine-specific histone demethylase 1A (Homo sapiens, UniProt O60341); experiment: Inhibition of human recombinant LSD1 by horseradish peroxidase-coupled fluorometric assay

Sequence of Cytochrome P450 3A4 (P08684 whole entry): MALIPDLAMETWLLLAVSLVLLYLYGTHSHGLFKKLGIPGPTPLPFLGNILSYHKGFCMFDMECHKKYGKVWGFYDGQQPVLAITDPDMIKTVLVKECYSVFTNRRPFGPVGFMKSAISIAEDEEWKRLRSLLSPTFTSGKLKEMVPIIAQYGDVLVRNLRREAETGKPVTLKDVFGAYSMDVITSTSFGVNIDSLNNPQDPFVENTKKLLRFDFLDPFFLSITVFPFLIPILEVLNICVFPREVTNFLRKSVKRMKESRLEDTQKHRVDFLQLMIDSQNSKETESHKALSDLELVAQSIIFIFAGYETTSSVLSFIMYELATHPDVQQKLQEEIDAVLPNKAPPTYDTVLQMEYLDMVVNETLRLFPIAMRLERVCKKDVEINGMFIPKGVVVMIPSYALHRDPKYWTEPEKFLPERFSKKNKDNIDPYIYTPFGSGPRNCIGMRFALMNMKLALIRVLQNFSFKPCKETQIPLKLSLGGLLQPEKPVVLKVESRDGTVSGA
Sequence of Cytochrome P450 2D6 (P10635 whole entry): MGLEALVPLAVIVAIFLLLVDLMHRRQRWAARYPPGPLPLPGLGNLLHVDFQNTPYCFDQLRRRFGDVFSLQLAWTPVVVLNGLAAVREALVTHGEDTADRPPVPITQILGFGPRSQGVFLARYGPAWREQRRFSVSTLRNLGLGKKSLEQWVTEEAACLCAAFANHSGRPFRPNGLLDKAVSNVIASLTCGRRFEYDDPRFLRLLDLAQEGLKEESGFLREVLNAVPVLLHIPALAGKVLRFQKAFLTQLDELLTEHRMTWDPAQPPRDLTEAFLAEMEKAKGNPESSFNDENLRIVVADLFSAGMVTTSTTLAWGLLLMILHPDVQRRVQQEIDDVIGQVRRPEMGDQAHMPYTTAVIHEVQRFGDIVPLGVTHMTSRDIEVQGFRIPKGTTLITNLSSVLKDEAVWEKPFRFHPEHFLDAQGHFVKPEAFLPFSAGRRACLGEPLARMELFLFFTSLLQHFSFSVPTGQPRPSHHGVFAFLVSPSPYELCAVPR
Sequence of Cytochrome P450 2C9 (P11712 whole entry): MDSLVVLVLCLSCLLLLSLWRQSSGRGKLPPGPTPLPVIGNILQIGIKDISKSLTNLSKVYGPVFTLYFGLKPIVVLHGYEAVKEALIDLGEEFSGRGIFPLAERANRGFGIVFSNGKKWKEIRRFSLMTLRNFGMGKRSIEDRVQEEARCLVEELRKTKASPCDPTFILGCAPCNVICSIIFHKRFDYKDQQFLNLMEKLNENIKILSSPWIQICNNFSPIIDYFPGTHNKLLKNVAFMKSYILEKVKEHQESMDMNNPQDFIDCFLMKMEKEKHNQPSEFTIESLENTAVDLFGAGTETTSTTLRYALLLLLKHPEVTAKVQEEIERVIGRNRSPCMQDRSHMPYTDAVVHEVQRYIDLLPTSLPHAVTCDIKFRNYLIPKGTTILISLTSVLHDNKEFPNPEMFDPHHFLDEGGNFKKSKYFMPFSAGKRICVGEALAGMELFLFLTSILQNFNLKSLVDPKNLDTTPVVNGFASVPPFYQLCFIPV
Sequence of Cytochrome P450 2C19 (P33261 whole entry): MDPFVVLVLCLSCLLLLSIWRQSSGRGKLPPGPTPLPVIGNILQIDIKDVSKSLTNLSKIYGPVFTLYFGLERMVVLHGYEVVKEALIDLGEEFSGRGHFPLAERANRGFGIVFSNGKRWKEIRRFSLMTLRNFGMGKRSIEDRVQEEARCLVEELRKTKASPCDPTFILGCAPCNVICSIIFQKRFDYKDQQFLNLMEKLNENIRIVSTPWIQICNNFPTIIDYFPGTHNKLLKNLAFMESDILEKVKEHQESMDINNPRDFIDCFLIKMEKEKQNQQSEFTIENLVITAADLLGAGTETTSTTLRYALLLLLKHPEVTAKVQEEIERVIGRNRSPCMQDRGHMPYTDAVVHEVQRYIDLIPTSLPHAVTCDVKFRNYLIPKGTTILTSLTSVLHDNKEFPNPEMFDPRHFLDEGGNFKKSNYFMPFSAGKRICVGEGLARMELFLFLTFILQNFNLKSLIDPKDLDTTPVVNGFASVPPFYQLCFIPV

Compound | half-life [1] [h] | microsomal CLint [2] [µL/min/mg] | CLint scaled [3] [mL/min/kg] | remaining at 1 h [4] [%] | remaining at 1 h [5] [%] | inhibition (INH) (Cytochrome P450 2C9) | inhibition (INH) (Cytochrome P450 2C19) | inhibition (INH) (Cytochrome P450 2D6) | inhibition (INH) (Cytochrome P450 3A4) | inhibition (INH) (Cytochrome P450 1A2) | IC50 (MCF7) [µM] | IC50 (MGC-803 [14]) [µM] | IC50 (A549) [µM] | IC50 (THP-1) [µM] | IC50 (THLE-2) [µM] | IC50 [15] [µM] | IC50 [16] [µM] | IC50 (NCI-H460 [17]) [µM] | other results
Cc1ccc(-c2ncc(OCC3CCNCC3)cc2-c2ccc(C#N)cc2)cc1 | 1.78 | 13 | 11.7 | 67.5 | 88.6 | Active | Active | Active | Active | Active | 16.9 | 12.4 | 9.73 | 34 | 7.83 |  |  |  | Activity (NCI-H460 [6]): 1.49%; Activity (NCI-H460 [7]): 1.12%; Activity (NCI-H460 [8]): 1.29%; Activity (NCI-H460 [9]): 0.9%; Activity (NCI-H460 [10]): 1.6%; Activity (NCI-H460 [11]): 1.21%; inhibition (NCI-H460 [12]): Dose-Dependent Effect; inhibition (NCI-H460 [13]): Tde
CNCCCN(C)Cc1coc2cc(-c3ccc(C)cc3)c(-c3ccc(C#N)cc3)cc12 | 0.168 | 138 | 124 | 7.9 | 55.8 | Active | Active | Active | Active | Active | 3.36 | 6.47 | 4.08 | 4.87 | 4.2 | > 20 | > 20 | 1.87 | 
Cc1ccc(-c2cc3occ(CNC4CCC(N)CC4)c3cc2-c2ccc(C#N)cc2)cc1 (centres undefined) |  |  |  |  |  |  |  |  |  |  | 4.31 | 6.27 | 6.33 | 7.06 | 1.41 |  |  | 1.58 | 
O=C(O)[C@H]1O[C@@H](Oc2cc3oc(-c4ccccc4)cc(=O)c3c(O)c2O)[C@H](O)[C@@H](O)[C@@H]1O [BAICALIN] |  |  |  |  |  |  |  |  |  |  |  |  |  |  |  |  |  |  | IC50 (MGC-803 [18]): 8.78 µM
Cc1ccc(-c2cc3occ(CN4CCC[C@H](N)C4)c3cc2-c2ccc(C#N)cc2)cc1 |  |  |  | 47 | 76.1 | Active | Active | Active | Active | Active | 2.9 | 5.85 | 5.74 | 6.15 | 7.07 | > 20 | > 20 | 2.06 | Activity (NCI-H460 [6]): 2.22%; Activity (NCI-H460 [7]): 0.87%; Activity (NCI-H460 [8]): 6.78%; Activity (NCI-H460 [9]): 2.77%; Activity (NCI-H460 [10]): 19.13%; Activity (NCI-H460 [11]): 11.01%; inhibition (NCI-H460 [12]): Dose-Dependent Effect; inhibition (NCI-H460 [13]): Tde; inhibition in vivo at 20 mg/kg/day (NCI-H460 [19]): 64%; inhibition in vivo at 20 mg/kg/day (NCI-H460 [20]): 68%; Activity [21]: Non-Toxic
Cc1ccc(-c2cc3occ(CNCCN)c3cc2-c2ccc(C#N)cc2)cc1 |  |  |  |  |  |  |  |  |  |  | 5.72 | 7.55 | 2.45 | 6.68 | 3.94 |  |  | 1.9 | 
Cc1ccc(-c2cc3occ(CNC4CCNC4)c3cc2-c2ccc(C#N)cc2)cc1 (centres undefined) | 1.58 | 14.6 | 13.2 | 65.2 | 56.7 | Active | Active | Active | Active | Active | 3.29 | 5.83 | 5.5 | 6 | 4.76 | > 20 | > 20 | 2.13 | 
NC1C[C@@H]1c1ccc(-c2cccc(O)c2)cc1 (single isomer, unassigned) |  |  |  |  |  |  |  |  |  |  |  |  |  |  |  |  |  |  | IC50 [22]: 40.5 µM
